In patent US8604202B2, “Thienopyridone derivatives as AMP-activated protein kinase (AMPK) activators” (Merck Patent GmbH, priority 2008, dated 2013):

Key:
[1] = biological target: T1, AMPK protein (recombinant α1β1γ2) (Homo sapiens, UniProt Q13131+Q9Y478); assay: AMPK enzymatic activity (Delfia, AMARA peptide); format: biochemical; settings: compound 30 μM vs AMP 30 μM; 125 μM ATP; 30 min room temperature; ratio 90% or higher = direct activator
T1 construct: made in house; host or cells: E. coli
T1 sequence (Q13131 whole entry): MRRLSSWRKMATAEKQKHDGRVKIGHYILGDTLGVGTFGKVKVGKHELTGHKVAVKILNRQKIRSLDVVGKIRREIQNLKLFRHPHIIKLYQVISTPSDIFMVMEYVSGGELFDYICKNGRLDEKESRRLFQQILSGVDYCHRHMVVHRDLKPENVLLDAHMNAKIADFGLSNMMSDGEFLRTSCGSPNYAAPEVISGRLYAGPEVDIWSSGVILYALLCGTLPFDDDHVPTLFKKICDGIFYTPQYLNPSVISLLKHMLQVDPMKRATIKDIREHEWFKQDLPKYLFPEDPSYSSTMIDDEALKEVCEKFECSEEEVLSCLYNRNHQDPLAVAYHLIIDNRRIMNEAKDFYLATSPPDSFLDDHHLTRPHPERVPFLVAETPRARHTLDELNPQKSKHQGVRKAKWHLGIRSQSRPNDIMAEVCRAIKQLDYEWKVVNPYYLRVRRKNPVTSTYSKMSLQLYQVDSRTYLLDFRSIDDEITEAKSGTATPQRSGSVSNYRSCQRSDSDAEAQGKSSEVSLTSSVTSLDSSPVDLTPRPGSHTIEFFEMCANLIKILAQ
T1 sequence (Q9Y478 whole entry): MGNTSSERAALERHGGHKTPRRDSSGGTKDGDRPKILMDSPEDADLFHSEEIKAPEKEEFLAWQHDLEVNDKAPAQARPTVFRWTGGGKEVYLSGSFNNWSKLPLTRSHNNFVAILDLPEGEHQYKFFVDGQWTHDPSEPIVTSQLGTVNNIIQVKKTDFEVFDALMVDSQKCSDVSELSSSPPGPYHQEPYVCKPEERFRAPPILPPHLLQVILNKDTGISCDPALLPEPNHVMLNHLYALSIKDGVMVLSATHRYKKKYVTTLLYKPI
T1 sequence (Q9UGJ0 whole entry partner): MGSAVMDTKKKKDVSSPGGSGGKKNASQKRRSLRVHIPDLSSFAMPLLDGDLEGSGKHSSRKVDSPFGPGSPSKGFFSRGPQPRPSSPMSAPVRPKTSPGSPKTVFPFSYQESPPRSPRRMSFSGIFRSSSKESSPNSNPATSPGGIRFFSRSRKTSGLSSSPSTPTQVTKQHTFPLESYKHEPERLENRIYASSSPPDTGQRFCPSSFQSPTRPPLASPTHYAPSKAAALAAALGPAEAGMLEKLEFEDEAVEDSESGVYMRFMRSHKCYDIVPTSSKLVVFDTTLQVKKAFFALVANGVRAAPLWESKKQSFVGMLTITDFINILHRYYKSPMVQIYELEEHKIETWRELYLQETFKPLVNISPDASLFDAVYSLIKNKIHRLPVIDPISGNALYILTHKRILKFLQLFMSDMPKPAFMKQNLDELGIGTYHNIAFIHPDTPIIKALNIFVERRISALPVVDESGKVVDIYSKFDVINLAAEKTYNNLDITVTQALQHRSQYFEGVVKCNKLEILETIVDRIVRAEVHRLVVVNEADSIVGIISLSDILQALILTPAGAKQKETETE
Method: The following biological test allows the determination of the efficacy of such compounds of formula (I) onto AMPK protein (recombinant α1β1γ2).
Human recombinant AMPK enzyme was expressed in E. Coli and was reactivated in vitro by LKB1 prior to enzyme activity determination.
AMPK enzyme activities were assayed by using A Delfia technology. AMPK enzyme activities were carried out in microtiter plates (50 mM Hepes buffer, pH 7.4 with 125 μM ATP respectively) in the presence of a synthetic peptide substrate (AMARAASAAALARRR, the “AMARA” peptide) and activators in serial dilutions. Reactions were initiated by the addition of AMPK (50-100 ng). Following mixing, the plates were incubated for 30 min at room temperature. Enzyme activity was assayed by using an anti-phosphoserine antibody to measure the quantity of phosphate incorporated into the AMARAA.
Ratio between the % of control (basal activity) of compound of formula (I) at 30 μM and the % of control (basal activity) of AMP (natural substrate) at 30 μM. Compounds of formula (I) in the table II are considered as direct activator of AMPK if the ratio is 90% or higher.

H-2 Kb cells = assay: Glucose uptake in H-2 Kb cells (in vitro cellular test); format: cell-based, mouse; settings: differentiated H-2 Kb muscle cells, 4 hours incubation, 2-deoxy-D-[3H]glucose 10 min; for EC (glucose uptake equal or higher to insulin 170 nM): Mus musculus, read-out: activity: Concentration of compound for a glucose uptake equal or higher to glucose uptake induced by insulin (170 nM)
Method: The following cellular test allows the determination of the effect of AMPK activators such as compounds of formula (I) onto glucose uptake in a muscle cellular model.
H-2 Kb cells derived from heterozygous H-2 Kb tsA58 transgenic mouse were grown in 24-well in plates coated with matrigel and were cultured at 33° C. for 4 days under permissive conditions, as described previously by Fryer et al. (Diabetes 49 (12): 1978, 2000).
For differentiation in muscle, cells were switched to non-permissive culture conditions (37° C. in the absence of interferon-γ). After 3 days, cells were incubated for 4 hours in DMEM 1 g/l glucose culture medium containing different concentrations of the tested molecules. Then glucose uptake was measured by incubating the cells for 10 min with radiolabelled 2-deoxy-D-[1, 2 ^3H] glucose. Glucose uptake was terminated by rapidly washing the plates 2 times with ice-cold NaCl 0.9%. The cells were then solubilized in 0.1N NaOH for 30 min. Radioactivity was determined by liquid scintillation counting.
Activity table III: Concentration of compound (1) for a glucose uptake equal or higher to glucose uptake induced by insulin (170 nM)

activity: Ratio between the % of control (basal activity) of compound of formula (I) at 30 μM and the % of control (basal activity) of AMP at 30 μM [1] | SMILES | EC (glucose uptake equal or higher to insulin 170 nM) (H-2 Kb cells) | activity: Concentration of compound for a glucose uptake equal or higher to glucose uptake induced by insulin (170 nM) (H-2 Kb cells)
130% | O=c1[nH]c2scc(-c3ccc(-c4ccccc4)cc3)c2c(O)c1-c1ccccc1 [Compound 1, 3-biphenyl-4-yl-4-hydroxy-5-phenyl-6,7-dihydro-thieno[2,3-b]pyridin-6-one] | > 10 µM | –
158% | COc1ccccc1-c1ccc(-c2csc3[nH]c(=O)c(-c4ccccc4)c(O)c23)cc1 [Compound 2, 4-hydroxy-3-(2′-methoxybiphenyl-4-yl)-5-phenyl-6,7-dihydro-thieno[2,3-b]pyridin-6-one] | > 10 µM | –
111% | COc1ccccc1-c1ccc(-c2c(Cl)sc3[nH]c(=O)c(-c4ccccc4)c(O)c23)cc1 [Compound 3, 2-chloro-4-hydroxy-3-(2′-methoxybiphenyl-4-yl)-5-phenyl-6,7-dihydro-thieno[2,3-b]pyridin-6-one] | – | ** (concentration of compound (I) ≦10 microMolar)
126% | O=c1[nH]c2scc(-c3ccc(-c4ccccc4O)cc3)c2c(O)c1-c1ccccc1 [Compound 4, 4-hydroxy-3-(2′-hydroxybiphenyl-4-yl)-5-phenyl-6,7-dihydro-thieno[2,3-b]pyridin-6-one] | > 10 µM | –
191% | O=c1[nH]c2scc(-c3ccc(-c4ccccc4F)cc3)c2c(O)c1-c1ccccc1 [Compound 6, 3-(2′-fluorobiphenyl-4-yl)-4-hydroxy-5-phenyl-6,7-dihydro-thieno[2,3-b]pyridin-6-one] | > 10 µM | –
141% | Cc1ccccc1-c1ccc(-c2csc3[nH]c(=O)c(-c4ccccc4)c(O)c23)cc1 [Compound 7, 4-hydroxy-3-(2′-methylbiphenyl-4-yl)-5-phenyl-6,7-dihydro-thieno[2,3-b]pyridin-6-one] | > 10 µM | –
120% | O=c1[nH]c2scc(-c3ccc(-c4cccc(O)c4)cc3)c2c(O)c1-c1ccccc1 [Compound 9, 4-hydroxy-3-(3′-hydroxybiphenyl-4-yl)-5-phenyl-6,7-dihydro-thieno[2,3-b]pyridin-6-one] | > 10 µM | –
150% | Cc1cccc(-c2ccc(-c3csc4[nH]c(=O)c(-c5ccccc5)c(O)c34)cc2)c1 [Compound 11, 4-hydroxy-3-(3′-methylbiphenyl-4-yl)-5-phenyl-6,7-dihydro-thieno[2,3-b]pyridin-6-one] | > 10 µM | –
206% | CS(=O)(=O)c1ccc(-c2ccc(-c3csc4[nH]c(=O)c(-c5ccccc5)c(O)c34)cc2)cc1 [Compound 20, 4-hydroxy-3-(4′-methylsulfonylbiphenyl-4-yl)-5-phenyl-6,7-dihydro-thieno[2,3-b]pyridin-6-one] | > 10 µM | –
152% | N#Cc1ccc(-c2c(O)c3c(-c4ccc(-c5ccccc5)cc4)csc3[nH]c2=O)cc1 [Compound 22, 3-biphenyl-4-yl-5-(4-cyanophenyl)-4-hydroxy-6,7-dihydro-thieno[2,3-b]pyridin-6-one] | > 10 µM | –
161% | Cc1ccccc1-c1ccc(-c2csc3[nH]c(=O)c(-c4cccnc4)c(O)c23)cc1 [Compound 35, 4-hydroxy-3-(2′-methylbiphenyl-4-yl)-5-pyridin-3-yl-6,7-dihydro-thieno[2,3-b]pyridin-6-one] | > 10 µM | –
124% | COc1cc(-c2csc3[nH]c(=O)c(-c4ccccc4)c(O)c23)ccc1-c1ccc(C)cc1 [Compound 46, 4-hydroxy-3-(4′-methyl-2-methoxybiphenyl-4-yl)-5-phenyl-6,7-dihydro-thieno[2,3-b]pyridin-6-one] | – | –
118% | COc1cc(-c2csc3[nH]c(=O)c(-c4ccccc4)c(O)c23)ccc1-c1ccc(F)cc1 [Compound 47, 3-(4′-fluoro-2-methoxybiphenyl-4-yl)-4-hydroxy-5-phenyl-6,7-dihydro-thieno[2,3-b]pyridin-6-one] | – | –
264% | COc1cc(-c2csc3[nH]c(=O)c(-c4ccccc4)c(O)c23)ccc1-c1ccc(O)cc1 [Compound 48, 4-hydroxy-3-(4′-hydroxy-2-methoxybiphenyl-4-yl)-5-phenyl-6,7-dihydro-thieno[2,3-b]pyridin-6-one] | – | –
421% | Cc1ccc(-c2ccc(-c3csc4[nH]c(=O)c(-c5ccccc5)c(O)c34)cc2O)cc1 [Compound 50, 4-hydroxy-3-(2-hydroxy-4′-methylbiphenyl-4-yl)-5-phenyl-6,7-dihydro-thieno[2,3-b]pyridin-6-one] | – | –
384% | O=c1[nH]c2scc(-c3ccc(-c4ccc(O)cc4)c(O)c3)c2c(O)c1-c1ccccc1 [Compound 51, 4-hydroxy-3-(2,4′-hydroxybiphenyl-4-yl)-5-phenyl-6,7-dihydro-thieno[2,3-b]pyridin-6-one] | – | –
219% | COc1cc(-c2csc3[nH]c(=O)c(-c4ccccc4)c(O)c23)ccc1-c1ccc(C(=O)O)cc1 [Compound 52, 4′-(4-hydroxy-6-oxo-5-phenyl-6,7-dihydro-thieno[2,3-b]pyridin-3-yl)-2′-methoxybiphenyl-4-carboxylic acid] | – | –
376% | O=C(O)c1ccc(-c2ccc(-c3csc4[nH]c(=O)c(-c5ccccc5)c(O)c34)cc2O)cc1 [Compound 53, 2′-hydroxy-4′-(4-hydroxy-6-oxo-5-phenyl-6,7-dihydro-thieno[2,3-b]pyridin-3-yl)biphenyl-4-carboxylic acid] | – | –
160% | COc1cc(-c2csc3[nH]c(=O)c(-c4ccccc4)c(O)c23)ccc1-c1cccc(CO)c1 [Compound 55, 4-hydroxy-3-(3′-hydroxymethyl-2-methoxybiphenyl-4-yl)-5-phenyl-6,7-dihydro-thieno[2,3-b]pyridin-6-one] | – | –
143% | COc1cc(-c2csc3[nH]c(=O)c(-c4ccccc4)c(O)c23)ccc1-c1cccnc1 [Compound 56, 4-hydroxy-3-[3-methoxy-4-pyridin-3-ylphenyl]-5-phenyl-6,7-dihydro-thieno[2,3-b]pyridin-6-one] | – | –
243% | O=c1[nH]c2scc(-c3ccc(-c4ccncc4)cc3O)c2c(O)c1-c1ccccc1 [Compound 57, 4-hydroxy-3-[2-hydroxy-4-pyridin-4ylphenyl]-5-phenyl-6,7-dihydro-thieno[2,3-b]pyridin-6-one] | – | –
111% | O=c1[nH]c2scc(-c3ccc(-c4cccc(CO)c4)cc3)c2c(O)c1-c1ccccc1 [Compound 58, 4-hydroxy-3-(3′-hydroxymethylbiphenyl-4-yl)-5-phenyl-6,7-dihydro-thieno[2,3-b]pyridin-6-one] | – | –
128% | O=c1[nH]c2scc(-c3ccc(-c4ccc(CO)cc4)cc3)c2c(O)c1-c1ccccc1 [Compound 59, 4-hydroxy-3-(4′-hydroxymethylbiphenyl-4-yl)-5-phenyl-6,7-dihydro-thieno[2,3-b]pyridin-6-one] | – | –
